Source: US11447495B2, “Substituted benzo[f]imidazo[1,5-a][1,4]diazepines as GABA(a) receptor modulators” (priority 2016, dated 2022)

Columns and labels:
[1] = Pharmacokinetic analysis in blood, lungs and brain; details: mouse, 25 mg/kg oral gavage
HEPG2 = experiment: Cytotoxicity, liver cells; assay type: cell-based, human; details: human, HepG2 liver cells
lung cells = experiment: Lung cell proliferation by EdU incorporation; assay type: in vivo; details: Ova s/c mice, treated versus non-treated
Method: ASM hyperplasia was determined by incooperation of EdU into the DNA of newly formed cells. Herein, at the end of the ovalbumin sensitization and challenge protocol, mice received a single i.p. injection of EdU (Invitrogen, Carlsbad, Calif.) at a dose of 100 mg/kg. Mice were euthanized 4 hours after injection and the lungs formalin fixed, harvested and paraffin embedded. 6 μm sections of formalin fixed and paraffin embedded lung sections were mounted onto Fisher Superfrost Plus Slides. EdU staining was conducted using Click-iT™ EdU imaging kit (Invitrogen, Carlsbad, Calif.) according to manufacturer's instructions. Briefly lungs were deparaffinized in histoclear and rehydrated in graded ethanol. Tissue sections were washed twice with 3% bovine serum albumin (BSA) in PBS and permeablized with 0.5% Triton X-100 in PBS for 20 minutes. The sections were again washed twice with 3% BSA in PBS and then incubated with a Click-iT™ reaction cocktail containing Click-iT™ reaction buffer, CuSO4, Alexa Fluor® 488 Azide, and reaction buffer additive for 30 minutes in the dark. […] Lung sections of non-treated and GL-II-93 treated Ova s/c mice were analyzed for the incooperation of EdU, a thymidine analog that can be visualized after click chemistry with a fluorescent azide. For the negative control EdU was not injected resulting in no visible fluorescence. […]

HEK293 = experiment: Cytotoxicity, CellTiter-Glo cell viability assay, kidney cells; assay type: cell-based, human; details: human, HEK293 (HEK293T) human embryonic kidney cells
Method: The cytotoxicity of compounds may be evaluated by treating HEK293 human embryonic kidney cells with increasing concentrations of compounds for 24-48 hours followed by the quantification of living cells using Cell-Titer Glo (Promega).
Compounds with increased cytotoxicity can be identified using an in vitro cytotoxicity assay. Therefore, human embryonic kidney 293T (HEK293T) cell lines were purchased (ATCC) and cultured in 75 cm2 flasks (CellStar). Cells were grown in DMEM/High Glucose (Hyclone, #SH3024301) media to which non-essential amino acids (Hyclone, #SH30238.01), 10 mM HEPES (Hyclone, #SH302237.01), 5×106 units of penicillin and streptomycin (Hyclone, #SV30010), and 10% of heat inactivated fetal bovine serum (Gibco, #10082147) were added. Cells were harvested using 0.05% Trypsin (Hyclone, #SH3023601). The cell viability assay was evaluated using CellTiter-Glo™ Luminescent Cell Viability Assay Kit (Promega, Madison, Wis.), which contains luciferase and all its substrate except ATP. The controls for the cytotoxicity assay used were (E)-10-(bromotriphenylphosphoranyl)decyl 4-(4-(tert-butyl)phenyl)-4-oxobut-2-enoate (400 μM in DMSO, positive control) and DMSO (negative control). All luminescence readings were performed on a Tecan Infinite M1000 plate reader. Small volume transfers were performed on the Tecan Freedom EVO liquid handling system with a 100 nL pin tool transfer (V&P Scientific). Serial dilutions were done in 96-well polypropylene plates (Corning, #3365) and assays were conducted in 384-well white optical bottom plates. The assays were carried out in quadruplet in three independent runs. The data were normalized to the controls and if possible analyzed by nonlinear regression (GraphPad Prism).

[2] = tested on: α1β3γ2 or α4β3γ2 GABAAR expressing HEK293T cells; experiment: Automated patch clamp with EC20 GABA in HEK293T cells; assay type: cell-based; details: GABA EC20, 3 seconds application
[3] = Microsomal stability, human liver microsomes; assay type: in vitro ADME; details: 10 μM compound
Method: The metabolic stability of compounds in vivo can be estimated with the stability of compounds in the presence of liver microsomes. Therefore, 4 μL of 1 mM DMSO solution of test compound at a final concentration of 10 μM were preincubated at 37° C. for 5 minutes on a digital heating shaking dry bath (Fischer scientific, Pittsburgh, Pa.) in a mixture containing 282 μL of water, 80 μL of phosphate buffer (0.5 M, pH 7.4) 20 μL of NADPH Regenerating System Solution A (BD Bioscience, San Jose, Calif.) and 4 μL of NADPH Regenerating System Solution B (BD Bioscience, San Jose, Calif.) in a total volume of 391.2 μL. Following preincubation, the reaction was initiated by addition of 8.8 μL of either human liver microsomes (BD Gentest, San Jose, Calif.) or mouse liver microsomes (Life technologies, Rockford, Ill.) at a protein concentration of 0.5 mg/mL. Aliquots of 50 μL were taken at time intervals of 0 (without microsomes), 10, 20, 30, 40, 50 and 60 minutes. Each aliquot was added to 100 μL of cold acetonitrile solution containing 1 μM of verapamil HCL as internal standard. This was followed by sonication for 10 seconds and centrifugation at 10,000 rpm for 5 minutes. 100 μL of the supernatant was transferred into Spin-X HPLC filter tubes (Corning Incorporated, NY) and centrifuged at 13,000 rpm for 5 minutes. The filtrate was diluted 100-fold and subsequently analyzed by LC-MS/MS with Shimadzu LCMS 8040, (Shimadzu Scientific Instruments, Columbia, Md.). The ratio of the peak areas of the internal standard and test compound was calculated for every time point and the natural log of the ratio were plotted against time to determine the linear slope (k). The metabolic rate (k*C0/C), half-life (0.693/k), and […] (V*k) were calculated, where k is the slope, C0 is the initial concentration of test compound, C is the concentration of microsomes, and V is the volume of incubation in μL per microsomal protein in mg. All experiments were repeated two time in triplicates.

| SMILES | bioavailability [1] | LD50 HEPG2 (Liver) (HEPG2) [µM] | proliferation of lung cells (EdU) (lung cells) | LD50 HEK293 (Kidney) (HEK293) [µM] | GABAA receptor subtype selectivity, current response [2] | HLM % remaining after 60 min [3] [%] |
| --- | --- | --- | --- | --- | --- | --- |
| C[C@H]1N=C(c2ccccc2F)c2cc(Br)ccc2-n2cnc(C(=O)O)c21 [GL-II-93, (R)-8-bromo-6-(2-fluorophenyl)-4-methyl-4H-benzo[f]imidazo[1,5-a][1,4]diazepine-3-carboxylic acid] | excellent bioavailability | >400 | Non-treated Ova S/C mice showed a high proliferation rate in comparison to GL-II-93 treated animals | >400 |  |  |
| CCOC(=O)c1ncn2c1[C@@H]1CCCN1C(=O)c1cc(O)ccc1-2 [RJ-02-50, ethyl (S)-7-hydroxy-9-oxo-11,12,13,13a-tetrahydro-9H-benzo[e]imidazo[5,1-c]pyrrolo[1,2-a][1,4]diazepine-1-carboxylate] | excellent bioavailability | >400 |  | >400 | positive α4β3γ2-selective GABAA receptor modulator | 91.7 ± 0.2 |
| O=C1c2cc(O)ccc2-n2cnc(-c3cnco3)c2[C@@H]2CCCN12 [RJ-03-30, (S)-7-hydroxy-1-(oxazol-5-yl)-11,12,13,13a-tetrahydro-9H-benzo[e]imidazo[5,1-c]pyrrolo[1,2-a][1,4]diazepin-9-one] |  | >400 |  | >400 |  | 91.8 ± 0.2 |
| C#Cc1ccc2c(c1)C(c1ccccc1F)=N[C@H](C)c1c(C(=O)O)ncn1-2 [SH-053-2′F-R-CH3-Acid, (R)-8-ethynyl-6-(2-fluorophenyl)-4-methyl-4H-benzo[f]imidazo[1,5-a][1,4]diazepine-3-carboxylic acid] | excellent bioavailability | >400 |  | >400 |  | 92.0 ± 0.2 |
